Data: ChEMBL document CHEMBL2385071, “Synthesis and biological investigation of coumarin piperazine (piperidine) derivatives as potential multireceptor atypical antipsychotics” (J Med Chem, 2013)

Columns and labels:
D(3) dopamine receptor = D(3) dopamine receptor (Rattus norvegicus, UniProt P19020); assay: biochemical
[1] = target: Voltage-gated inwardly rectifying potassium channel KCNH2 (Homo sapiens, UniProt Q12809)
Description: Inhibition of human ERG expressed in HEK293 cells by electrophysiology assay

[2] = target: T1, Adrenergic receptor alpha-1 (Rattus norvegicus, UniProt P15823+P23944+P43140)
T1 sequence (P15823 whole entry): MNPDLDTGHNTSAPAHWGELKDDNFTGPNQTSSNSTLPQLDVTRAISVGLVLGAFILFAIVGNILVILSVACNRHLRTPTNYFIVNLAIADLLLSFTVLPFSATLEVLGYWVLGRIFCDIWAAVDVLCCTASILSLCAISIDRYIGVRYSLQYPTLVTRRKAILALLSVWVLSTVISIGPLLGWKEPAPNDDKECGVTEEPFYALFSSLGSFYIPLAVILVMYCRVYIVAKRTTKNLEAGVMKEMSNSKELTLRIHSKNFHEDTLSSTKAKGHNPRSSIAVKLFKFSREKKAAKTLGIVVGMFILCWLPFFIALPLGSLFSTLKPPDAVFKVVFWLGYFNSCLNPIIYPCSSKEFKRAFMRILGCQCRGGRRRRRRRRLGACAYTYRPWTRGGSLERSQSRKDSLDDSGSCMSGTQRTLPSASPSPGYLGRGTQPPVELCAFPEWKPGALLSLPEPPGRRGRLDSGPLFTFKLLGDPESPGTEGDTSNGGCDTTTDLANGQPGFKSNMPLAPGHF
T1 sequence (P23944 whole entry): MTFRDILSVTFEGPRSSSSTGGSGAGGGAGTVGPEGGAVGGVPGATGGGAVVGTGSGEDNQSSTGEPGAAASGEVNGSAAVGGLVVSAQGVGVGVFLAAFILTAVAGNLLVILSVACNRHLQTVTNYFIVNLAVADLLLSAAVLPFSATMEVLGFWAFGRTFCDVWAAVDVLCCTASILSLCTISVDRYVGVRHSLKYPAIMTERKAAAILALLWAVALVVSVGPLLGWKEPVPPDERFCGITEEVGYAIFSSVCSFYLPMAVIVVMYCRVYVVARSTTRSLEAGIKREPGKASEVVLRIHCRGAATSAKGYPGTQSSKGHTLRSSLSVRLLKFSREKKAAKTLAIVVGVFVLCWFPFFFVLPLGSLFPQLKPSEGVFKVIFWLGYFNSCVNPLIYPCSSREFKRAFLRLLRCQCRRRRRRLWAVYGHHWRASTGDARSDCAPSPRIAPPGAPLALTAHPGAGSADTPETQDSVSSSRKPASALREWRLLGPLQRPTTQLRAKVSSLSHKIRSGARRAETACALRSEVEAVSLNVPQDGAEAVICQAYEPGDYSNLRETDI
T1 sequence (P43140 whole entry): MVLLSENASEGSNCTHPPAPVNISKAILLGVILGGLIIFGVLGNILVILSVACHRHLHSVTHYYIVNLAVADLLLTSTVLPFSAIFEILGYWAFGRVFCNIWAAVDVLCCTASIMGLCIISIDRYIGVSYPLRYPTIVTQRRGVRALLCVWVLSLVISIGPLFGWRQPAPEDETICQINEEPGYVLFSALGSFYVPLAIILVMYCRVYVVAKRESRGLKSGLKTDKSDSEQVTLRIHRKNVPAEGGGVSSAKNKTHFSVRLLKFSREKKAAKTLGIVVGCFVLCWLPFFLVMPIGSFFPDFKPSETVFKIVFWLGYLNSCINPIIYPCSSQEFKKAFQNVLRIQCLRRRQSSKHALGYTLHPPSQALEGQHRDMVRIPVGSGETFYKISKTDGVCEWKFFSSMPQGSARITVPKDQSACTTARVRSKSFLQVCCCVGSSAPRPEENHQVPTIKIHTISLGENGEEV
Description: Displacement of [3H]prazosin from alpha-1 adrenergic receptor in rat cerebral cortex after 60 mins by liquid scintillation counting analysis

[3] = AUC (0 to 12 hrs) in rat at 12 mg/kg, po by HPLC-MS analysis; format: ADME, organism-based; design: time < 12 hr, dose 12 mg/kg, route oral; settings: plasma
Mus musculus [4] = assay: Toxicity in po dosed mouse assessed as induction of catalepsy; format: organism-based; settings: in vivo
Mus musculus [5] = assay: Toxicity in mouse assessed as effect on serum prolactin level at 0.3 to 2.7 mg/kg, po for 28 days measured 180 mins after last treatment by enzyme immunoassay; format: organism-based; design: dose 0.3-2.7 mg/kg, route oral; settings: in vivo, 3 h
[6] = target: T2, 5-hydroxytryptamine receptor 1A (Homo sapiens) (UniProt P08908); assay: Agonist activity at 5HT1A receptor (unknown origin) expressed in CHOK1 cells coexpressing Galpha15 at 10 uM by FLIPR assay relative to control; format: cell-based; settings: CHO-K1
T2 sequence (whole entry): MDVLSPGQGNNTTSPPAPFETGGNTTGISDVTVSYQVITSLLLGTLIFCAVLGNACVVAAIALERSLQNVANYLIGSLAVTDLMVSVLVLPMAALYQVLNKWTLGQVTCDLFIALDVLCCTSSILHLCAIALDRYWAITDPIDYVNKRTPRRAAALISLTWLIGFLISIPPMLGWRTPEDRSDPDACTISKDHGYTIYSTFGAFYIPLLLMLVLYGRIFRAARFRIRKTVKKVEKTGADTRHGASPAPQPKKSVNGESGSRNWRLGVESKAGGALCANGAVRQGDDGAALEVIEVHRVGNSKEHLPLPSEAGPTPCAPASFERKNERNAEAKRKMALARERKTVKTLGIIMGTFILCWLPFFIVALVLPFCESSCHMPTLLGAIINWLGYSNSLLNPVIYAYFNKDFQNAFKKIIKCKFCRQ

Rattus norvegicus [7] = assay: Toxicity in rat assessed as QT interval prolongation/cardiac liability at 5 to 60 mg/kg, po by electrophysiology assay; format: organism-based; design: dose 5-60 mg/kg, route oral; settings: in vivo
[8] = Half life in rat at 5 mg/kg, iv by HPLC-MS analysis; format: ADME, organism-based; design: dose 5 mg/kg, route intravenous; settings: in vivo
Mus musculus [9] = test system: Mus musculus
Mus musculus [10] = test system: Mus musculus; remark: listed apart in the source
Description: (§1) Antipsychotic activity in po dosed mouse assessed as reduction in apomorphine-induced climbing behavior administered for 30 mins prior to apomorphine-challenge measured at 10 to 30 mins post-dose

Mus musculus [11] = species on record: Mus musculus; assay: animal or person; settings: po
Description: as §1

[12] = target: 5-hydroxytryptamine receptor 2A (Homo sapiens, UniProt P28223)
Description: Antagonist activity at 5HT2A receptor (unknown origin) expressed in CHOK1 cells coexpressing Galpha15 assessed as inhibition of agonist-induced response incubated for 60 mins in incubator followed by 15 mins at room temperature by FLIPR assay

[13] = Oral bioavailability in rat at 12 mg/kg by HPLC-MS analysis; format: ADME, organism-based; settings: in vivo
Rattus norvegicus [14] = assay: Antipsychotic activity in po dosed rat assessed as reduction in conditioned avoidance response after 60 mins; format: functional
D(2) dopamine receptor = D(2) dopamine receptor (Homo sapiens, UniProt P14416); assay: Antagonist activity at dopamine D2 receptor (unknown origin) expressed in CHOK1 cells coexpressing Galpha15 assessed as inhibition of agonist-induced response at 10 uM incubated for 60 mins in incubator followed by 15 mins at room temperature by FLIPR assay relative to control; format: cell-based; settings: CHO-K1
[15] = Cmax in rat at 12 mg/kg, po by HPLC-MS analysis; format: ADME, organism-based; design: dose 12 mg/kg, route oral; settings: in vivo

Chain of Voltage-gated inwardly rectifying potassium channel KCNH2 (Q12809 whole entry): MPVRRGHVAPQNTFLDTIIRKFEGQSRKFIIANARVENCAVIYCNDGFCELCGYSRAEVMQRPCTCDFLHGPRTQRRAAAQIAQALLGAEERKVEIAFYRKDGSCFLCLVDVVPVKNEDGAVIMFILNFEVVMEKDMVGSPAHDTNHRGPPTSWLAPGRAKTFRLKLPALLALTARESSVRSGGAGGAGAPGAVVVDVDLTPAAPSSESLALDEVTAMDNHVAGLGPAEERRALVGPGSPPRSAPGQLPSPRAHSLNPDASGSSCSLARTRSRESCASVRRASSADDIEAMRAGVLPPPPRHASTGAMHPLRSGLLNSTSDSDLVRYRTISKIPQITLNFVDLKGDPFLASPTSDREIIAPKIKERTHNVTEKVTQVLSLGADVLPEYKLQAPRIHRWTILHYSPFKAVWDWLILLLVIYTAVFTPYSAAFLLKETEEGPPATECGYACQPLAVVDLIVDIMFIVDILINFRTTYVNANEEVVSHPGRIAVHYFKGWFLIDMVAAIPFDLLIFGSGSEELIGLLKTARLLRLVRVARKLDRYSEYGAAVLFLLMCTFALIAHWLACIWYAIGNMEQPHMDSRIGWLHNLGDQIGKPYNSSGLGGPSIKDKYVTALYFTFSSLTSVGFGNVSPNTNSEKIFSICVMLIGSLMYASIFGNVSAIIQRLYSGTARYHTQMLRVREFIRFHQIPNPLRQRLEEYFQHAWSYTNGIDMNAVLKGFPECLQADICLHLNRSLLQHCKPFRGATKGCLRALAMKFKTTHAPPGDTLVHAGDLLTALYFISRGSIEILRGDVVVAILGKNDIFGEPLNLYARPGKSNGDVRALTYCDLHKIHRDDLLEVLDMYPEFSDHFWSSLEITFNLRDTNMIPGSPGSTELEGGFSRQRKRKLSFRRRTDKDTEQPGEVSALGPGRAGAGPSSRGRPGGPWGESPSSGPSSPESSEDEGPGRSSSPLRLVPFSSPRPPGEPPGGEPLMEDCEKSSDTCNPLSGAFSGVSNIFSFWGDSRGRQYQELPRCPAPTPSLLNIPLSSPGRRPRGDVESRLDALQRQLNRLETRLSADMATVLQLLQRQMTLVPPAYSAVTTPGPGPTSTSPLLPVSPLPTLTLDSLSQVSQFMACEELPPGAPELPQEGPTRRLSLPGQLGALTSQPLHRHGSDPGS
Chain of D(3) dopamine receptor (P19020 whole entry): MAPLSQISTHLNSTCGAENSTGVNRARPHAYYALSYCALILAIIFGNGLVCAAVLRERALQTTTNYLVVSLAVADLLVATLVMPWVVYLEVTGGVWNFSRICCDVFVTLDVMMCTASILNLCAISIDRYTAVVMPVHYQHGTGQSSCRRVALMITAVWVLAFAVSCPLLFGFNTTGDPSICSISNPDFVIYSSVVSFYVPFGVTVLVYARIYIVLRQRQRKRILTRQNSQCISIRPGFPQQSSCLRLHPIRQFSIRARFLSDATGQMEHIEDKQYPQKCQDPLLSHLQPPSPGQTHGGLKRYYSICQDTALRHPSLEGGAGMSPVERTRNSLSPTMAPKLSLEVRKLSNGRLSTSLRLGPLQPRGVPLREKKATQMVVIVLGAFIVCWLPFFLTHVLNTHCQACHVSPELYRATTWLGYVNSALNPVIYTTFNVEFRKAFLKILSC
Chain of 5-hydroxytryptamine receptor 2A (P28223 whole entry): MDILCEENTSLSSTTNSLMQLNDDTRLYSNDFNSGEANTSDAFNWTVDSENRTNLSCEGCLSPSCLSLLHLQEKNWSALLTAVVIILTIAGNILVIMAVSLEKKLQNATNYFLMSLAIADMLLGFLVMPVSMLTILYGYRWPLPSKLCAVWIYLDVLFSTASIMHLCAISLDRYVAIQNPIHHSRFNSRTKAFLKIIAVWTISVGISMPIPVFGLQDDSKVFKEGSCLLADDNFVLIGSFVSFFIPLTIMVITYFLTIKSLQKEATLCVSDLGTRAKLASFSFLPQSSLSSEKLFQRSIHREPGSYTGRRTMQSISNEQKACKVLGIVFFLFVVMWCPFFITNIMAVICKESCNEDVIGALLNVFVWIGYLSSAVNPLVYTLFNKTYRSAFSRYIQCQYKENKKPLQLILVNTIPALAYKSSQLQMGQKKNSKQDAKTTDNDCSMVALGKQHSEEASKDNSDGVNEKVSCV
Chain of D(2) dopamine receptor (P14416 whole entry): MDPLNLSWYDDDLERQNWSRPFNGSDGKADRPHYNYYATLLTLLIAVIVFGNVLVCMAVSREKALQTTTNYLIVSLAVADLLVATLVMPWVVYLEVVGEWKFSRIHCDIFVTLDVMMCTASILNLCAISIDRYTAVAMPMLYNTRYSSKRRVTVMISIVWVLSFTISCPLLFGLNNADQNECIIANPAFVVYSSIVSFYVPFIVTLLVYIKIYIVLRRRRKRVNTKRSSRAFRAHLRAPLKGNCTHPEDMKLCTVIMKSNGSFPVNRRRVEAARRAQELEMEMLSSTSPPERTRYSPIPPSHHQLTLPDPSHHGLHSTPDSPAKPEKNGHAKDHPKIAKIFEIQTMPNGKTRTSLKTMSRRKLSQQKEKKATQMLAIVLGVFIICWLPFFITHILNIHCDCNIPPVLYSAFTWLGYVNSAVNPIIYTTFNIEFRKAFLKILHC

SMILES | Ki (D(3) dopamine receptor) | Ki [2] | IC50 [1] | further results
Cc1cc(=O)oc2cc(OCCCCN3CCC(c4noc5cc(F)ccc45)CC3)ccc12 | 71.3 nM | 15.8 nM | 159 nM | 
COc1ccccc1N1CCN(CCCCOc2ccc3c(C)cc(=O)oc3c2)CC1 | 4.8 nM | 6.1 nM | 31 nM | 
Cc1cc(=O)oc2c(Cl)c(OCCCCN3CCC(c4noc5cc(F)ccc45)CC3)ccc12 | 4.3 nM | 2569.2 nM | 1590 nM | AUC(0-t) at 12 h [3]: 644 ng·h/mL; ED50 (Mus musculus [4]): 70.85 mg/kg; Activity (Mus musculus [5]): Non-toxic; Activity [6]: 9.9%; Activity (Rattus norvegicus [7]): Non-toxic; half-life [8]: 300 min; Activity (Mus musculus [9]): Dose-dependent effect; Activity (Mus musculus [10]): Dose-dependent effect; ED50 (Mus musculus [11]): 0.14 mg/kg; IC50 [12]: 39.2 nM; bioavailability [13]: 32%; Activity (Rattus norvegicus [14]): Dose-dependent effect; ED50 (Rattus norvegicus [14]; 1 h): 6.5 mg/kg; inhibition (D(2) dopamine receptor): 101%; Cmax [15]: 72.1 ng/mL

The remaining molecules from weak to strong by Ki (D(3) dopamine receptor), led by results:

Ki (D(3) dopamine receptor) | Ki [2] | SMILES | IC50 [1] | further results
72.7 nM | > 10000 nM | O=c1cc(-c2ccccc2)c2ccc(OCCCCN3CCC(c4noc5cc(F)ccc45)CC3)cc2o1 |  | 
30.6 nM | 139.2 nM | Cc1c(C)c2ccc(OCCCCN3CCC(c4noc5cc(F)ccc45)CC3)cc2oc1=O | 195 nM | 
13.6 nM | 121.2 nM | Cc1cc(=O)oc2c(C)c(OCCCCN3CCC(c4noc5cc(F)ccc45)CC3)ccc12 | 226 nM | 
